Patent US20140066394A1, “Substituted 6-(Benzylamino) Purine Riboside Derivatives, Use Thereof and Compositions Containing These Derivatives” (Biopatterns, S.R.O, priority 2009, published 2014)

These compounds were tested on breast carcinoma cell line MCF-7 (assay: In vitro cytotoxicity, Calcein AM assay, MCF7). Conditions: 72 hours.
Type: cell-based, human
Source text: (§1) Low cytotoxicity of the compounds is the major property determining the cosmetic use. One of the parameters used, as the basis for cytotoxicity assays, is the metabolic activity of viable cells. For example, a microtiter assay, which uses the Calcein AM, is now widely used to quantitate cell proliferation and cytotoxicity. For instance, this assay is used in drug screening programs and in chemosensitivity testing. Because only metabolically active cells cleave Calcein AM, these assays detect viable cells exclusively. The quantity of […] Calcein AM corresponds to the number of vital cells in the culture.
(§2) Human T-lymphoblastic leukemia cell line CEM; promyelocytic HL-60 and monocytic U937 leukemias; breast carcinoma cell lines MCF-7, BT549, MDA-MB-231; glioblastoma U87MG cells; cervical carcinoma cells HELA; sarcoma cells U2OS and Saos2; hepatocellular carcinoma HepG2; mouse fibroblasts NIH3T3; mouse immortalized bone marrow macrophages B2.4 and B10A.4; P388D1 and L1210 leukemia; B16 and B16F10 melanomas; human osteosarcoma HOS; human myeloid leukemia K-562; human skin melanoma G-361 were used for routine screening of compounds. The cells were maintained in Nunc/Corning 80 cm^2 plastic tissue culture flasks and cultured in cell culture medium (DMEM with 5 g/l glucose, 2 mM glutamine, 100 U/mL penicillin, 100 μg/mL streptomycin, 10% fetal calf serum and sodium bicarbonate).
(§3) The cell suspensions that were prepared and diluted according to the particular cell type and the expected target cell density (2.500-30.000 cells per well based on cell growth characteristics) were added by pipette ([…]) into 96/well microtiter plates. Inoculates were allowed a pre-incubation period of 24 hours at 37° C. and 5% CO2 for stabilisation. Four-fold dilutions of the intended test concentration were added at time zero in 20 μl aliquots to the microtiter plate wells. Usually, the compound tested was evaluated at six 4-fold dilutions. In routine testing, the highest well concentration was 100 μM, but it can be the matter of change dependent on the agent. All drug concentrations were examined in duplicates. Incubations of cells with the tested compounds lasted for 72 hours at 37° C., in 5% CO2 atmosphere and 100% humidity. At the end of the incubation period, the cells were assayed by using Calcein AM. Ten microliters of the stock solution were pipetted into each well and incubated for 1 hour. Fluorescence (FD) was measured with the Labsystem FIA Reader Fluoroscan Ascent (UK). The tumour cell survival (GI50) was calculated using the following equitation: TCS=(FDdrug exposed well/mean FDeontrol wells)×100%. The GI50 value, the drug concentration lethal to 50% of the tumour cells, was calculated from the obtained dose response curves.
(§4) Zero cytotoxicity of the novel compounds is the basic prerequisite for agricultural and tumor-unrelated applications. The cytoxicity of the novel compounds was tested on a panel of cell lines of different histogenetic and species origin (Table 9). We show herein that equal activities were found in all tumour cell lines tested, however, the non-malignant cells, e.g. NIH3T3 fibroblasts and normal human lymphocytes, were resistant to 2,6-disubstituted purine ribosides induced cytotoxicity. The compounds listed in Tab. 9 can be divided into 2 groups. The first group contains “classical cytokinins” represented by 6-substituted purine ribosides (which are known in the prior art). The second group contains the novel 2,6-disubstituted derivatives of these compounds. […] GI50 for NIH3T3 fibroblasts and normal human lymphocytes was always higher than 100 μM. The novel derivatives show no toxicity to normal and tumour cells in concentrations about 100 μM and thus are more suitable for agricultural applications than “classical cytokinins” (6-substituted purine riboside derivatives).

Structure (SMILES) | GI50 [µM]
Cc1ccc(O)c(CNc2ncnc3c2ncn3C2OC(CO)C(O)C2O)c1 (centres unmarked) [2-hydroxy-5-methylbenzylamino, reference compound] | 6.9
COc1c(O)cccc1CNc1ncnc2c1ncn2[C@@H]1O[C@H](CO)[C@@H](O)[C@H]1O [2-methoxy-3-hydroxybenzylamino, reference compound] | > 100
COc1ccc(CNc2nc(Cl)nc3c2ncn3C2OC(CO)C(O)C2O)c(O)c1 (centres unmarked) [Compound 11] | > 100
Cc1cccc(CNc2nc(Cl)nc3c2ncn3C2OC(CO)C(O)C2O)c1O (centres unmarked) [Compound 13] | > 100
COc1c(O)cccc1CNc1nc(Cl)nc2c1ncn2C1OC(CO)C(O)C1O (centres unmarked) [Compound 21] | > 100

Each compound was assayed on human myeloid leukemia K-562 (assay: In vitro cytotoxicity, Calcein AM assay, K-562). Conditions: 72 hours.
Type: cell-based
Source text: as §1, §2, §3, §4

Structure (SMILES) | GI50 [µM]
Cc1ccc(O)c(CNc2ncnc3c2ncn3C2OC(CO)C(O)C2O)c1 (centres unmarked) [2-hydroxy-5-methylbenzylamino, reference compound] | 18
COc1c(O)cccc1CNc1ncnc2c1ncn2[C@@H]1O[C@H](CO)[C@@H](O)[C@H]1O [2-methoxy-3-hydroxybenzylamino, reference compound] | 16.5
COc1ccc(CNc2nc(Cl)nc3c2ncn3C2OC(CO)C(O)C2O)c(O)c1 (centres unmarked) [Compound 11] | > 100
Cc1cccc(CNc2nc(Cl)nc3c2ncn3C2OC(CO)C(O)C2O)c1O (centres unmarked) [Compound 13] | > 100
COc1c(O)cccc1CNc1nc(Cl)nc2c1ncn2C1OC(CO)C(O)C1O (centres unmarked) [Compound 21] | > 100

The compounds below were run on Human T-lymphoblastic leukemia cell line CEM (assay: In vitro cytotoxicity, Calcein AM assay, CEM). Conditions: 72 hours.
Type: cell-based
Source text: as §1, §2, §3, §4

Structure (SMILES) | GI50 [µM]
Cc1ccc(O)c(CNc2ncnc3c2ncn3C2OC(CO)C(O)C2O)c1 (centres unmarked) [2-hydroxy-5-methylbenzylamino, reference compound] | 0.9
COc1c(O)cccc1CNc1ncnc2c1ncn2[C@@H]1O[C@H](CO)[C@@H](O)[C@H]1O [2-methoxy-3-hydroxybenzylamino, reference compound] | 1.9
COc1ccc(CNc2nc(Cl)nc3c2ncn3C2OC(CO)C(O)C2O)c(O)c1 (centres unmarked) [Compound 11] | > 100
Cc1cccc(CNc2nc(Cl)nc3c2ncn3C2OC(CO)C(O)C2O)c1O (centres unmarked) [Compound 13] | > 100
COc1c(O)cccc1CNc1nc(Cl)nc2c1ncn2C1OC(CO)C(O)C1O (centres unmarked) [Compound 21] | > 100

What follows are compounds tested on promyelocytic HL-60 leukemia (assay: In vitro cytotoxicity, Calcein AM assay, HL60). Conditions: 72 hours.
Type: cell-based, human
Source text: as §1, §2, §3, §4

Structure (SMILES) | GI50 [µM]
Cc1ccc(O)c(CNc2ncnc3c2ncn3C2OC(CO)C(O)C2O)c1 (centres unmarked) [2-hydroxy-5-methylbenzylamino, reference compound] | 10
COc1c(O)cccc1CNc1ncnc2c1ncn2[C@@H]1O[C@H](CO)[C@@H](O)[C@H]1O [2-methoxy-3-hydroxybenzylamino, reference compound] | 10
COc1ccc(CNc2nc(Cl)nc3c2ncn3C2OC(CO)C(O)C2O)c(O)c1 (centres unmarked) [Compound 11] | > 100
Cc1cccc(CNc2nc(Cl)nc3c2ncn3C2OC(CO)C(O)C2O)c1O (centres unmarked) [Compound 13] | > 100
COc1c(O)cccc1CNc1nc(Cl)nc2c1ncn2C1OC(CO)C(O)C1O (centres unmarked) [Compound 21] | > 100

What follows are compounds tested on human skin melanoma G-361 (assay: In vitro cytotoxicity, Calcein AM assay, G-361). Conditions: 72 hours.
Type: cell-based
Source text: as §1, §2, §3, §4

Structure (SMILES) | GI50 [µM]
Cc1ccc(O)c(CNc2ncnc3c2ncn3C2OC(CO)C(O)C2O)c1 (centres unmarked) [2-hydroxy-5-methylbenzylamino, reference compound] | > 100
COc1c(O)cccc1CNc1ncnc2c1ncn2[C@@H]1O[C@H](CO)[C@@H](O)[C@H]1O [2-methoxy-3-hydroxybenzylamino, reference compound] | > 100
COc1ccc(CNc2nc(Cl)nc3c2ncn3C2OC(CO)C(O)C2O)c(O)c1 (centres unmarked) [Compound 11] | > 100
Cc1cccc(CNc2nc(Cl)nc3c2ncn3C2OC(CO)C(O)C2O)c1O (centres unmarked) [Compound 13] | > 100
COc1c(O)cccc1CNc1nc(Cl)nc2c1ncn2C1OC(CO)C(O)C1O (centres unmarked) [Compound 21] | > 100

The compounds below were run on human osteosarcoma HOS (assay: In vitro cytotoxicity, Calcein AM assay, HOS). Conditions: 72 hours.
Type: cell-based
Source text: as §1, §2, §3, §4

Structure (SMILES) | GI50 [µM]
Cc1ccc(O)c(CNc2ncnc3c2ncn3C2OC(CO)C(O)C2O)c1 (centres unmarked) [2-hydroxy-5-methylbenzylamino, reference compound] | > 100
COc1c(O)cccc1CNc1ncnc2c1ncn2[C@@H]1O[C@H](CO)[C@@H](O)[C@H]1O [2-methoxy-3-hydroxybenzylamino, reference compound] | > 100
COc1ccc(CNc2nc(Cl)nc3c2ncn3C2OC(CO)C(O)C2O)c(O)c1 (centres unmarked) [Compound 11] | > 100
Cc1cccc(CNc2nc(Cl)nc3c2ncn3C2OC(CO)C(O)C2O)c1O (centres unmarked) [Compound 13] | > 100
COc1c(O)cccc1CNc1nc(Cl)nc2c1ncn2C1OC(CO)C(O)C1O (centres unmarked) [Compound 21] | > 100

What follows are compounds tested on β-adrenergic receptors (assay: Isoproterenol-induced cAMP synthesis in rat C6 glioma (anti-inflammatory activity)). Conditions: added simultaneously with (−)-isoproterenol.
Type: cell-based
Experimental: Anti-inflammatory activity of several of the 2-substituted 6-benzylaminopurine riboside derivatives of this invention was determined; kinetin riboside was also evaluated as a control. Rat C6 glioma (ATCC No. CCL107) was cultivated in monolayer in serum-free chemically defined medium containing Ham's F10/minimal essential medium (1:1 v/v), 2 mM L-glutamine, 1% (v/v) minimal essential medium vitamins (100×), 1% (v/v) minimal essential medium nonessential amino acids (100×), 100 U/mL penicillin, […], and 30 nM sodium selenite. Incubation was performed at 37° C. in a humidified atmosphere. The assays were performed in the logaritmic growth phase at a density of 2.5×10^5 cells/cm^2.
Intracellular cAMP synthesis was induced by addition of 5 mM (−)-isoproterenol; various amounts of test compounds were added at the same time as the (−)-isoproterenol. After […] incubation at 37° C., the medium was removed and the cellular amount of cAMP was determined using the cAMP-enzyme immunoassay kit from Amersham. The I50 value was determined from a dose-response curve in duplicate. The effect of nine purine analogues was measured after simultaneous addition with isoproterenol.
As P2Y1-like and A2 purinergic receptors, negatively and positively coupled to adenylate cyclase respectively, are present on rat C6 glioma as to be determined if the modulation of the synthesis of cAMP is due to inhibition of the activation of β-adrenergic receptors by isoproterenol are due to activation of purinergic receptors.

Effect (modulation of isoproterenol-induced cAMP synthesis) | Structure (SMILES)
inhibition | Cc1cccc(CNc2nc(Cl)nc3c2ncn3C2OC(CO)C(O)C2O)c1O (centres unmarked) [Compound 13]

Same assay, conditions: cellular cAMP by enzyme immunoassay, dose-response curve in duplicate, read-out: I50

IC50 [µM] | Structure (SMILES)
18.7 ± 4 | Cc1cccc(CNc2nc(Cl)nc3c2ncn3C2OC(CO)C(O)C2O)c1O (centres unmarked) [Compound 13]
